Reference: article PMC6542280 (Bioorganic & medicinal chemistry letters, 2019)

Target: T1, Nutrient-deprivation autophagy factor-1 (NAF-1, miner1) (Homo sapiens, UniProt Q8N5K1)
T1 sequence (Q8N5K1 57-135 limits assumed): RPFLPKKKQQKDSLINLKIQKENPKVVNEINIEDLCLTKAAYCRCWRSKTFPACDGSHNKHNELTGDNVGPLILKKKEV
Assay: scintillation proximity assay, [3H]rosiglitazone displacement
Assay type: binding

NL-1 was tested, and the IC50 was 29.8 µM.
